The text below walks through data of ChEMBL document CHEMBL1201862, “PubChem BioAssay data set” (2004).

Test systems include Malme-3M; OVCAR-5; NCI/ADR-RES; NCI-H23; SN12C; HCC 2998; IGROV-1; OVCAR-8; LOX IMVI; SK-MEL-2; HCT-116; SK-MEL-28; MCF7; OVCAR-3; HOP-62; OVCAR-4; SNB-75; PC-3; KM12; DU-145.
Assay in all cases: growth of human tumour cells (NCI), 48 h

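Dose response: 5 concentrations. Exposure: 48 h. Format: 96-well plates. Endpoint: linear interpolation; highest concentration if not reached. GI50 is the concentration that inhibits growth by half.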 Active and inactive are the calls of the source. No stated cut-off is given here; in the data, active = GI50 up to about 1.1 µM and inactive = higher.

Take `COC1=CC(=O)c2c(O)c3c(c(O)c2C1=O)OC1(Oc2c(cc4cc(C)oc(=O)c4c2O)CC1O)C3O` (stereo not given): the GI50 is 2.14 µM (inactive) in the assay with Malme-3M; 32.7 µM (inactive) in the assay with OVCAR-5; 46.9 µM (inactive) in the assay on NCI/ADR-RES; 35.6 µM (inactive) with NCI-H23; 23.5 µM (inactive) in the assay on SN12C; 28.9 µM (inactive) with HCC 2998. Further, the GI50 in the assay on IGROV-1 was 25.8 µM (inactive); with OVCAR-8, 40.4 µM (inactive); with LOX IMVI, 30.1 µM (inactive); with SK-MEL-2 it was 39.7 µM (inactive); with HCT-116 it was 35.6 µM (inactive); in the assay on SK-MEL-28, 46.5 µM (inactive). The GI50 with MCF7 was 43.9 µM (inactive); with OVCAR-3 it was 67.1 µM (inactive); in the assay on HOP-62, 35.2 µM (inactive); with OVCAR-4, 27.8 µM (inactive); with SNB-75, 60.4 µM (inactive); in the assay with PC-3 it was 38.4 µM (inactive). For the same molecule, the values for the GI50 in the assay on KM12 and in the assay with DU-145 were 29.9 µM (inactive) and 33.8 µM (inactive), respectively.
On to `Cc1cc(N)ccc1/N=N\c1ccc(S(=O)(=O)CCOS(=O)(=O)O)cc1`, for which the GI50 was 1.99 µM (inactive) in the assay on Malme-3M; 20.3 µM (inactive) in the assay with OVCAR-5; 0.41 µM (active) with NCI/ADR-RES; 0.7 µM (active) in the assay with NCI-H23; 0.463 µM (active) with SN12C; 2.01 µM (inactive) in the assay on HCC 2998. Besides, the GI50 is 0.713 µM (active) with IGROV-1; 0.356 µM (active) in the assay on OVCAR-8; 0.343 µM (active) in the assay on LOX IMVI; 0.605 µM (active) in the assay with SK-MEL-2; 0.34 µM (active) in the assay with HCT-116; 1.69 µM (inactive) in the assay on SK-MEL-28. Besides, the GI50 in the assay on MCF7 was 0.614 µM (active); in the assay with OVCAR-3 it was 3.45 µM (inactive); in the assay on HOP-62, 6.1 µM (inactive); with OVCAR-4, 10.5 µM (inactive); with SNB-75, 1.04 µM (active); with PC-3, 0.292 µM (active). For the same molecule, the GI50 in the assay with KM12 was 2.87 µM (inactive); in the assay with DU-145, 26 µM (inactive).
